Data: US5681832A, “Aroylaniline compounds, pharmaceutical compositions, and methods of using same to inhibit viral activity” (priority 1995, dated 1997)
Structures can show the parent of a compound that is named as a salt.

How the values were obtained:
HIV-1 = assay: in vitro anti-HIV screening (NCI XTT soluble-formazan assay, protection of HIV-1-infected CEM T4 lymphocytes from cytolysis); type: cell-based
From the text: The aroylaniline compounds of the present invention were subjected to in vitro screening to determine their anti-HIV activity.
The National Cancer Institute's procedure for testing for agents active against Human Immunodeficiency Virus (HIV) (Weislow, O. W. et al., "New soluble-formazan assay for HIV-1 cytopathic effects: application to high-flux screening of synthetic and natural products for AIDS-antiviral activity," J. Natl Cancer Inst., 81, 577-586 (1989)) is designed to detect agents acting at any stage of the virus reproductive cycle. The assay includes the killing of T4 lymphocytes by HIV. Pursuant to the test, small amounts of HIV are added to cells, and a complete cycle of virus reproduction is necessary to obtain the required cell killing. Agents that interact with virions, cells, or virus gene-products to interfere with viral activities will protect cells from cytolysis. The system is thus designed to detect anti-HIV activity. However, compounds that are chemically labile or are rapidly metabolized in the culture conditions may not show activity in this screen. All tests are compared with at least one positive (e.g., AZT-treated) control done at the same time under identical conditions.
(§1) 1. Candidate agent is dissolved in dimethyl sulfoxide (unless otherwise instructed) and then diluted 1:100 in cell culture medium before preparing serial half-log10 dilutions which are then to 96-well microfilter plates. T4 lymphocytes (CEM cell line) are added, and after a brief interval HIV-1 is added to all wells, resulting in a 1:200 final dilution […]. Uninfected cells with the compound serve as a toxicity control, and infected and uninfected cells without the compound serve as basic controls.
(§2) 2. Cultures are incubated at 37° C. in a 5% carbon dioxide atmosphere for 6 days.
(§3) 3. The tetrazolium salt, XTT, is added to all wells, and cultures are incubated to allow formazan color development by viable cells.
(§4) 4. Individual wells are analyzed spectrophotometrically to quantitate formazan production, and in addition are viewed microscopically for detection of viable cells and confirmation of protective activity.
(§5) 5. Drug-tested virus-infected cells are compared with drug-treated noninfected cells and with other appropriate controls (untreated infected and untreated noninfected cells, drug-containing wells without cells, etc.) on the same plate.
6. Data are reviewed in comparison with other tests done at the same time and a determination about activity is made.
The aroylaniline compounds of the present invention were tested for anti-HIV activity according to the above procedure. FIGS. 1-6 represent test results of the aroylaniline compounds of Compounds 1, 3, 13, 14, 29 and 32.
(§6) FIGS. 1 to 6 display a plot of the log10 of the concentrations (as μg/mL or molar as shown) of the aroylaniline compounds, Compounds 1, 3, 13, 14, 29 and 32, against the measured test values expressed as a percentage of the uninfected, untreated control values. The solid line depicts the percentage of surviving HIV-infected cells treated with sample (at the indicated concentration) relative to uninfected, untreated controls. Thus, the solid line expresses the anti-HIV activity of the compound. The dashed line depicts the percentage of surviving uninfected cells treated with the compound relative to the same uninfected, untreated controls. Thus, the dashed line expresses the growth inhibitory properties of the compound. The viral cytopathic effect […] is indicated by a dotted reference line. […] Survival values of this parameter less than 50% are considered acceptable in the current protocol. Approximate values for 50% effective concentration (EC50) have been calculated for each test and are set forth for these Compounds in Tables 2-7, respectively.

[1] = tested on: T4 lymphocytes (CEM cell line); assay: toxicity control: survival of uninfected T4 lymphocytes (CEM cell line) treated with compound (growth inhibition); type: cell-based; conditions: Homo sapiens, CCRF-CEM
Protocol: as §1, §2, §3, §4, §5, §6

Compound: O=C(Nc1ccc(/C=C/c2ccc(NC(=O)c3cc(S(=O)(=O)O)c4cccnc4c3O)cc2S(=O)(=O)O)c(S(=O)(=O)O)c1)Nc1ccc(/C=C/c2ccc(NC(=O)c3cc(S(=O)(=O)O)c4cccnc4c3O)cc2S(=O)(=O)O)c(S(=O)(=O)O)c1 [Compound 3, 1,3-di[2,2'-disulfo-4(8-hydroxy-5-sulfo-7-quinoline)]stilbene urea, hexasodium salt]
- EC50 (HIV-1; Human immunodeficiency virus 1, CCRF-CEM, 144 h, HIV-1-infected CEM cells, 6 days, approximate values, read-out: EC50 (Molar), 50% effective concentration): 4.06 µM
- inhibition at 15.8 µM (HIV-1; Human immunodeficiency virus 1, CCRF-CEM, 1.58 × 10^-5 Molar, read-out: Percent of Protection): 92.9%
- inhibition at 1.58 µM (HIV-1; Human immunodeficiency virus 1, CCRF-CEM, 1.58 × 10^-6 Molar, read-out: Percent of Protection): 0.19%
- inhibition at 0.158 µM (HIV-1; Human immunodeficiency virus 1, CCRF-CEM, 1.58 × 10^-7 Molar, read-out: Percent of Protection): -1.29%
- inhibition at 0.0158 µM (HIV-1; Human immunodeficiency virus 1, CCRF-CEM, 1.58 × 10^-8 Molar, read-out: Percent of Protection): 0.19%
- inhibition at 50 µM (HIV-1; Human immunodeficiency virus 1, CCRF-CEM, 5.00 × 10^-5 Molar, read-out: Percent of Protection): 90.8%
- inhibition at 5 µM (HIV-1; Human immunodeficiency virus 1, CCRF-CEM, 5.00 × 10^-6 Molar, read-out: Percent of Protection): 61.1%
- inhibition at 0.501 µM (HIV-1; Human immunodeficiency virus 1, CCRF-CEM, 5.01 × 10^-7 Molar, read-out: Percent of Protection): 2%
- inhibition at 0.0502 µM (HIV-1; Human immunodeficiency virus 1, CCRF-CEM, 5.02 × 10^-8 Molar, read-out: Percent of Protection): 0.51%
- activity at 15.8 µM (HIV-1; Human immunodeficiency virus 1, CEM-T4, 1.58 × 10^-5 Molar, read-out: Percent of Control, Infected): 93.2%
- activity at 1.58 µM (HIV-1; Human immunodeficiency virus 1, CEM-T4, 1.58 × 10^-6 Molar, read-out: Percent of Control, Infected): 4.18%
- activity at 0.158 µM (HIV-1; Human immunodeficiency virus 1, CEM-T4, 1.58 × 10^-7 Molar, read-out: Percent of Control, Infected): 2.76%
- activity at 0.0158 µM (HIV-1; Human immunodeficiency virus 1, CEM-T4, 1.58 × 10^-8 Molar, read-out: Percent of Control, Infected): 4.18%
- activity at 50 µM (HIV-1; Human immunodeficiency virus 1, CEM-T4, 5.00 × 10^-5 Molar, read-out: Percent of Control, Infected): 91.1%
- activity at 5 µM (HIV-1; Human immunodeficiency virus 1, CEM-T4, 5.00 × 10^-6 Molar, read-out: Percent of Control, Infected): 62.7%
- activity at 0.501 µM (HIV-1; Human immunodeficiency virus 1, CEM-T4, 5.01 × 10^-7 Molar, read-out: Percent of Control, Infected): 5.92%
- activity at 0.0502 µM (HIV-1; Human immunodeficiency virus 1, CEM-T4, 5.02 × 10^-8 Molar, read-out: Percent of Control, Infected): 4.49%
- TI50 (IC/EC), therapeutic index (HIV-1; IC50/EC50): > 1.23 × 10^+1
- Conclusion (HIV-1; NCI anti-HIV screen): CONFIRMED ACTIVE
- IC50 ([1]; 144 h, uninfected CEM cells, 6 days, read-out: IC50 (Molar)): > 50 µM
- activity at 15.8 µM ([1]; 1.58 × 10^-5 Molar, read-out: Percent of Control, Uninfected): 103%
- activity at 1.58 µM ([1]; 1.58 × 10^-6 Molar, read-out: Percent of Control, Uninfected): 95.7%
- activity at 0.158 µM ([1]; 1.58 × 10^-7 Molar, read-out: Percent of Control, Uninfected): 94.4%
- activity at 0.0158 µM ([1]; 1.58 × 10^-8 Molar, read-out: Percent of Control, Uninfected): 111%
- activity at 50 µM ([1]; 5.00 × 10^-5 Molar, read-out: Percent of Control, Uninfected): 98%
- activity at 5 µM ([1]; 5.00 × 10^-6 Molar, read-out: Percent of Control, Uninfected): 97%
- activity at 0.501 µM ([1]; 5.01 × 10^-7 Molar, read-out: Percent of Control, Uninfected): 97.7%
- activity at 0.0502 µM ([1]; 5.02 × 10^-8 Molar, read-out: Percent of Control, Uninfected): 95.8%
